Counter-ions that a name gives are not always drawn.
Key:
[1] = test system: Human lung cancer cell line A549; test: MTT cancer cell cytotoxicity assay, A549; format: cell-based; conditions: Homo sapiens, A549 cells, 48-72 h
Experimental: (§1) Identification of 3-(2-methoxyphenyl)-6-(4-methoxyphenyl)-[1,2,4]triazolo[4,3-a]pyridine and analogs as inhibitors of cell proliferation that were evaluated with standard MTT cancer cell cytotoxicity assay (IC50)
(§2) Human lung cancer cell line A549, breast cancer cell line T47D, liver cancer cell lines HepG2 and SMMC7721 as well as a mouse melanoma cell line B16F10 were used in the study. The cells were cultured in corresponding growth media recommended by American Type Culture Collection (ATCC) with the supplementation of penicillin G (100 U/ml)/streptomycin (100 µg/ml), and 10% fetal bovine serum (Hangzhou Sijiqing Biological Engineering Materials, Co., Ltd. China) at 37° C. in a humidified atmosphere containing 5% CO2. Cells at about 80% confluency were harvested by trypsinization. Cells were centrifuged, re-suspended in fresh growth media and counted. Corresponding numbers of cells were seeded to 96-well cell culture plates (HepG2 cell, T-47D and A549 cells at 3000 cells/well, SMMC-7721 cells at 5000 cells/well and B16F10 cells at 2000 cells/well) in a total volume of […]. Cells were incubated in CO2 incubator over night to allow the cells to attach. In next day, […] of medium containing testing (from 10 μM to 1 nM) or reference compounds was added to each well of the cells. Media without compound were used as 100% control. Cells were treated with each concentration of compounds in triplicates to ensure data accuracy. Cells were incubated with compounds in CO2 incubator for an additional 48-72 h at 37° C. After incubation, cells were removed from the CO2 incubator and […] of 5 mg/ml MTT (3-(4,5-dimethylthiazole-2-yl)-2,5-diphenyltetrazoliumbromide, Sigma) solution in PBS was added to each well. Cells were returned to CO2 incubator and incubated for additional 4 h. After the incubation, media were removed by aspiration and […] DMSO was added to each well. Plates were sealed with aluminum foil and shaked mildly on an orbital shaker for 10 min at room temperature. The absorption was measured at 550 nm with a plate reader (Varioskan Flash, Thermo Fisher Scientific) with 660 nm reading used as background control. The relative absorbance readings were calculated by subtracting readings at 660 nm from that at 550 nm. The relative absorbance was plotted again the concentrations of the testing compounds and the plots were fitted with a one-site lg(IC50) equation using Prism 5 software (GraphPad Software, Inc). The equation used in the curve fitting is as follows: relative absorbance reading=background reading+(maximal reading−brackground reading)/(1+10 ^(compound concentration-log IC50)). The background reading used in the calculation was obtained with 100% cell death using a reference anticancer drug, whereas the maximal reading was obtained in the well with no added compound. The IC50 value calculated from the equation represents the cytotoxic potency of a particular compound.

[2] = test system: liver cancer cell line HepG2; test: MTT cancer cell cytotoxicity assay, HepG2; format: cell-based, human; conditions: Homo sapiens, HepG2 cells, 48-72 h
Experimental: as §1, §2

[3] = test system: liver cancer cell line SMMC7721; test: MTT cancer cell cytotoxicity assay, SMMC7721; format: cell-based, human; conditions: Homo sapiens, SMMC-7721, SMMC7721 cells, 48-72 h
Experimental: as §1, §2

[4] = test system: breast cancer cell line T47D; test: MTT cancer cell cytotoxicity assay, T47D; format: cell-based, human; conditions: Homo sapiens, T47D cells, 48-72 h
Experimental: as §1, §2

SMILES | IC50 [1] | IC50 [2] | IC50 [3] | IC50 [4]
COc1ccccc1-c1nnc2ccc(-c3ccc(O)c(C)c3)cn12 [Example 41, 6-(4-Hydroxy-3-methylphenyl)-3-(2-methoxyphenyl)-[1,2,4]triazolo[4,3-a]pyridine] | 212 nM | 155 nM | 117 nM | 129 nM
COc1ccccc1-c1nnc2ccc(-c3cccc(N)c3)cn12 [Example 45, 6-(3-Aminophenyl)-3-(2-methoxyphenyl)-[1,2,4]triazolo[4,3-a]pyridine hydrochloride] | 2930 nM | 1250 nM | 829 nM | 678 nM
COc1cc(-c2ccc3nnc(-c4ccccc4OC)n3c2)ccc1O [Example 56, 6-(4-Hydroxy-3-methoxyphenyl)-3-(2-methoxyphenyl)-[1,2,4]triazolo[4,3-a]pyridine] | > 10000 nM | 706 nM | 1820 nM | 1480 nM
COc1ccc(-c2ccc3nnc(-c4ccccc4OC(F)(F)F)n3c2)cc1 [Example 67, 6-(4-Methoxyphenyl)-3-(2-trifluoromethoxyphenyl)-[1,2,4]triazolo[4,3-a]pyridine] | 471 nM | 910 nM | 105 nM | 328 nM
COc1ccccc1-c1nnc2ccc(-c3ccc(C)cc3C)cn12 [Example 25, 6-(2,4-Dimethylphenyl)-3-(2-methoxyphenyl)-[1,2,4]triazolo[4,3-a]pyridine] | 725 nM | 724 nM | 114 nM | 415 nM
COc1ccccc1-c1nnc2ccc(-c3ccc(C)cc3F)cn12 [Example 4, 6-(2-Fluoro-4-methylphenyl)-3-(2-methoxyphenyl)-[1,2,4]triazolo[4,3-a]pyridine] | 276 nM | 246 nM | 80 nM | 326 nM
COc1ccc(-c2ccc3nnc(-c4ccc(N)cc4OC)n3c2)cc1 [Example 87, 3-(4-Amino-2-methoxyphenyl)-6-(4-methoxyphenyl)-[1,2,4]triazolo[4,3-a]pyridine hydrochloride] | 711 nM | 356 nM | 175 nM | 308 nM
COc1ccccc1-c1nnc2ccc(-c3cc(OC)c(OC)c(OC)c3)cn12 [Example 29, 3-(2-Methoxyphenyl)-6-(3,4,5-trimethoxyphenyl)-[1,2,4]triazolo[4,3-a]pyridine] | > 10000 nM | > 10000 nM | > 10000 nM | > 10000 nM
COc1ccccc1-c1nnc2ccc(-c3ccc(C)cc3)cn12 [Example 22, 3-(2-Methoxyphenyl)-6-(4-methylphenyl)-[1,2,4]triazolo[4,3-a]pyridine] | 192 nM | 224 nM | 51 nM | 147 nM
COc1ccccc1-c1nnc2ccc(-c3ccc(C)c(N)c3)cn12 [Example 44, 6-(3-Amino-4-methylphenyl)-3-(2-methoxyphenyl)-[1,2,4]triazolo[4,3-a]pyridine] | 54 nM | 29 nM | 20 nM | 48 nM
COc1ccc(-c2ccc3nnc(-c4ccc(OC)c(OC)c4OC)n3c2)cc1 [Example 72, 6-(4-Methoxyphenyl)-3-(2,3,4-trimethoxyphenyl)-[1,2,4]triazolo[4,3-a]pyridine] | > 10000 nM | > 10000 nM | 4140 nM | 8160 nM
COc1ccc(-c2ccc3nnc(-c4ccc(F)cc4OC)n3c2)cc1 [Example 58, 3-(4-Fluoro-2-methoxyphenyl)-6-(4-methoxyphenyl)-[1,2,4]triazolo[4,3-a]pyridine] | 59 nM | 35 nM | 17 nM | 54 nM
COc1ccc([N+](=O)[O-])cc1-c1nnc2ccc(-c3ccc(OC)c([N+](=O)[O-])c3)cn12 [Example 42, 6-(4-Methoxy-3-nitrophenyl)-3-(2-methoxy-5-nitrophenyl)-[1,2,4]triazolo[4,3-a]pyridine] | 489 nM | 312 nM | 230 nM | 279 nM

Source: US9199983B2, “3-aryl-6-aryl-[1,2,4]triazolo[4,3-α]pyridines as inhibitors of cell proliferation and the use thereof” (priority 2010, dated 2015)
